In patent publication US8603437B2, “Methods for tumor diagnosis and therapy” (President and Fellows of Harvard College, priority 2000, dated 2013):

Assays:
[1] = Blood clearance after i.v. injection in mice; settings: bled over 1 hour, blood radioactivity
[2] = mouse, in vivo, iv
[3] = Chemical nature of radioactivity in blood (stability), TLC and autoradiography of blood samples; assay type: in vivo, mice; settings: blood samples from first 40 min, ethanol supernatant, TLC; single spot with same Rf as 127I-labeled Compound A
Description: The plates were run in acetonitrile-water (1.5:2) and autoradiographed.

[4] = system: alkaline phosphatase (ALP)
Description: The animals were killed 1 hour later and the radioactivity in the forelimbs was measured.

[5] = system: alkaline phosphatase (ALP); settings: ~10 μCi/100 μl 0.1 M Tris pH 7.2, 5 units ALP; only with active enzyme, not heat-inactivated ALP
[6] = Biodistribution in normal mice after i.v. injection; assay type: in vivo; settings: for affinity / avidity for normal tissues: 1 hour and 24 hours; for injected dose remaining in the body by 24 hours: ~5 μCi/100 μl
Description: Mice (n=30) were injected i.v. with the radiopharmaceutical (˜5 μCi/100 μl), the animals were killed at 1 hour (n=15) and 24 hours (n=15), and the radioactivity associated with blood, tissues, and organs was determined.
The biodistribution of ^125I-labeled Compound B was also examined in various tissues in normal mice. […] However, by 24 hours (FIG. 5), all tissues and organs (with the exception of minimal activity in the thyroid) were virtually void of radioactivity (<4% of the injected dose remained in the body by 24 hours).

[7] = Retention of radioactivity in forelimb after s.c. injection, and 24 hour biodistribution; assay type: in vivo, mice
Description: […] […] The animals were killed after 1 hour, 24 hours, and 48 hours, the radioactivity associated with the forelimbs was measured, and the percentage of radioactivity remaining was calculated (at the 24 hour time point, the biodistribution of radioactivity in various tissues and organs was also determined).

Solubility observations = assay type: physicochemical

Row | radioactivity in all tissues examined at 1 hour ([6]; 1 hour) [% ID/g] | solubility in DMSO (Solubility observations; 100 μl DMSO) | behaviour on adding water to the DMSO solution (Solubility observations; 100 μl water added to 100 μl DMSO) | localization of escaped radioactivity in normal tissues ([7]; biodistribution 24 hours after s.c. injection) | change in forelimb radioactivity between 24 hours and 48 hours ([7]; s.c. forelimb) | injected activity remaining at the injection site at 24 hours ([7]; s.c. right forelimb, 5 μl DMSO solution followed by 5 μl saline) [%] | Compound | T1/2β [1] [min] | blood clearance of radioactivity [2] | stability in blood: chemical nature of radioactivity [3] | radioactive content within forelimbs pre-injected with ALP ([4]; ALP 50-400 units/10 μl s.c., 20 μCi i.v. five minutes later, killed 1 hour later) | uptake in forelimbs pre-injected with heat-inactivated ALP ([4]; heat-inactivated ALP s.c., i.v. prodrug, 1 hour) | conversion to 125I-labeled Compound B [5] | dehalogenation (thyroid activity) [6] | affinity / avidity for normal tissues [6] | injected dose remaining in the body by 24 hours [6] | fraction seeped out of the s.c. pocket by 24 hours ([7]; s.c. left forelimb, 5 μCi/5 μl saline followed by 5 μl DMSO)
1 |  |  |  |  |  |  | N.O=c1[nH]c(-c2ccccc2OP(=O)(O)O)nc2ccc(I)cc12 [^125-I labeled Compound A, Ammonium 2-(2′-Phosphoryloxyphenyl)-6-iodo-4-(3H)-quinazolinone] | 51.1 ± 6.8 | rapid biphasic blood clearance | no evidence of free iodine | increased with enzyme dose and plateaued at the highest concentrations | no increase in uptake | complete conversion | minimal dehalogenation | low affinity to normal tissues | < 20 % of the injected dose | greater than 98%
2 | < 15 | completely soluble | visible precipitate forms immediately | does not localize in any normal tissues | no change | 71±5 | O=c1[nH]c(-c2ccccc2O)nc2ccc(I)cc12 [^125-I labeled Compound B, 2-(2′-Hydroxyphenyl)-6-iodo-4-(3H)-quinazolinone] |  |  |  |  |  |  |  | no avidity for any tissue | < 4 % of the injected dose | 
